Measured values taken from article PMC12137140, “The fast-evolving FIKK kinase family of Plasmodium falciparum can be inhibited by a single compound” (Nature Microbiology, 2025).

How the values were obtained:
FIKK1 = biological target: T1, FIKK1 (Plasmodium falciparum, UniProt B9ZSH8); test: ADP-Glo kinase assay, % inhibition heat map (n = […]); assay type: biochemical
T1 construct: gene PF3D7_0102600; recombinant kinase domain

FIKK13 = biological target: T2, FIKK13 (Plasmodium falciparum, UniProt A0A143ZWL4); test: as above; assay type: biochemical
T2 construct: gene PF3D7_1371700; recombinant kinase domain
T2 sequence (A0A143ZWL4 entry or part of it): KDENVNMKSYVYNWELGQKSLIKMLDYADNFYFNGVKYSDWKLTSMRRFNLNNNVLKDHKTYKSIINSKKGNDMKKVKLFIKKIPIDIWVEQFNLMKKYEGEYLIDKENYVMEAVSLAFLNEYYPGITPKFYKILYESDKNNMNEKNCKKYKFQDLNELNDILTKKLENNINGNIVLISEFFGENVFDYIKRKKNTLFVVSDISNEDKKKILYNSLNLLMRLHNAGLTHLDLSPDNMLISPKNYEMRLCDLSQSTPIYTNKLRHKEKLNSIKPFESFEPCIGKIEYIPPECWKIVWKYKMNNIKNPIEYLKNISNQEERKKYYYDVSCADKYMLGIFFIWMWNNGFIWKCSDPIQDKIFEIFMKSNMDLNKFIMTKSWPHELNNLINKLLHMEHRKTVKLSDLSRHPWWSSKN

FIKK8 = biological target: T3, FIKK8 (Plasmodium falciparum, UniProt C0H4R8); test: biochemical; design: ADP-Glo luminescence kinase assay, recombinant FIKK8 kinase domain, Po peptide substrate plus ATP, four-parameter IC50 fit
T3 construct: gene PF3D7_0805700; recombinant FIKK8 kinase domain
T3 sequence (C0H4R8 entry or part of it): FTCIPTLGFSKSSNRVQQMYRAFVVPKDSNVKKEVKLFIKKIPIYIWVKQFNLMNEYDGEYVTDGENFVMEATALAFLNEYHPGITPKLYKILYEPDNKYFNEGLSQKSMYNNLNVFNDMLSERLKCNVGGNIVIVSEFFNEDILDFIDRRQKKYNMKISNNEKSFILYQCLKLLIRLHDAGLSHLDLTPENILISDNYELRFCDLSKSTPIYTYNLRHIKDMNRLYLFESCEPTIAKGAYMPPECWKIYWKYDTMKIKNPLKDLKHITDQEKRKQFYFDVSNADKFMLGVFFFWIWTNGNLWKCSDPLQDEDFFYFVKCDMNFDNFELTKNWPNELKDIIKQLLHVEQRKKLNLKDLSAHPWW
Procedure: Columns 6 and 18 of the microplates served as controls. Column 6 was a positive control (recombinant FIKK8 kinase domain + Po peptide ([…])[22] + ATP without compounds). Column 18 was a negative control (recombinant FIKK8 kinase domain + Po peptide − ATP). First, 3 µl kinase at 40 nM in kinase reaction buffer (20 mM MOPS, 10 mM magnesium chloride and 10 mM manganese chloride, pH 7.4 (Alfa Aesar)) was dispensed in each well using a Multidrop Combi Reagent dispenser (Thermo Fisher Scientific). Recombinant FIKK8 kinase domain was left to incubate in the presence of compounds for 15 min at room temperature. Then, 3 µl Po peptide + ATP at 20 µM each, diluted in kinase reaction buffer, was dispensed in each well except in column 18 in which 3 µl of peptide without ATP was dispensed. The kinase reaction was left to occur for 1 h and was stopped with 6 µl ADP-Glo reagent. Kinase activity was assessed after addition of 12 µl kinase detection reagent by measuring luminescence on a multimode microplate reader FLUOstar Omega (BMG Labtech).

T1 sequence (B9ZSH8 entry or part of it): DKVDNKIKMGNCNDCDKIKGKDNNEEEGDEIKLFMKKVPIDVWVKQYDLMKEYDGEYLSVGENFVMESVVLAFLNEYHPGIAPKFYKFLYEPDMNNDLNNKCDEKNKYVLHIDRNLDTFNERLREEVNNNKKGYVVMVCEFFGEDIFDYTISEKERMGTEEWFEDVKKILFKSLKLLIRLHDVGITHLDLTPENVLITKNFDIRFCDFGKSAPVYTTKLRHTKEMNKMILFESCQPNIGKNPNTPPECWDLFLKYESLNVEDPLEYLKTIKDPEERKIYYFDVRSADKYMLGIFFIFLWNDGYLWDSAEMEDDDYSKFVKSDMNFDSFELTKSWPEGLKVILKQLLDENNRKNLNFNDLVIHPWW

Structure (SMILES)	ADP-Glo kinase assay, % inhibition heat map (n = 3) (FIKK1)	ADP-Glo kinase assay, % inhibition heat map (n = 3) (FIKK13)	IC50 (FIKK8) [nM]
Cc1cc(O)c2c(c1)C(=O)c1cc(O)cc(O)c1C2=O [Emodin]	showed potency against all PfFIKKs (Fig. 6d)	showed potency against all PfFIKKs (Fig. 6d)	–
COc1ccc(Nc2ncc(C#N)c(Nc3ccccc3C(N)=O)n2)cc1N1CCN(C)CC1 [GSK1558669A]	–	–	89 ± 37
O=c1[nH]ccc2nc(N[C@@H]3CCCNC3)nc(Nc3ccc(S(=O)(=O)N4CCOCC4)cc3)c12 [GSK2177277A]	–	–	48 ± 4.4
O=c1[nH]ccc2nc(N[C@@H]3CCNC3)nc(Nc3ccc4c(c3)S(=O)(=O)CC4)c12 [GSK2181306A]	–	–	31 ± 1.6
O=c1[nH]ccc2nc(N[C@@H]3CCNC3)nc(Nc3cc(Cl)cc(Cl)c3)c12 [GSK2188764A]	–	–	60 ± 9.8
Cc1cccc(Nc2nc(N[C@H]3CCNC3)ncc2C(N)=O)c1 [GSK2197149A]	–	–	315 ± 52
CCN(CC)Cc1ccc(Nc2nccc(-c3cnn4ncccc34)n2)cc1 [GW780056X]	–	–	332 ± 88
CCNc1nccc(-c2c(-c3ccc(F)cc3)ncn2C2CCN(C)CC2)n1 [SB-226605]	–	–	98 ± 6.6
CN1CCC(n2cnc(-c3ccc(F)cc3)c2-c2ccnc(NCCO)n2)CC1 [SB-226879]	–	–	176 ± 20
CN1CCC(n2cnc(-c3ccc(F)cc3)c2-c2ccnc(NC3CCNCC3)n2)CC1 [SB-229482]	–	–	24 ± 1.7
O=C(Nc1n[nH]c2nnc(-c3cccnc3)cc12)C1CC1 [SB-675259-M]	–	–	168 ± 21
CCN1CCC(CC(=O)Nc2n[nH]c3nc(-c4cccs4)c(Br)cc23)CC1 [SB-739245-AC]	–	–	238 ± 28
